# Results as given in PMC12137140, “The fast-evolving FIKK kinase family of Plasmodium falciparum can be inhibited by a single compound” (Nature Microbiology, 2025).
# Experiments:
# FIKK8 = biological target: T1, FIKK8 (Plasmodium falciparum, UniProt C0H4R8); assay: biochemical; design: ADP-Glo luminescence kinase assay, recombinant FIKK8 kinase domain, Po peptide substrate plus ATP, four-parameter IC50 fit
# T1 construct: gene PF3D7_0805700; recombinant FIKK8 kinase domain
# Procedure: Columns 6 and 18 of the microplates served as controls. Column 6 was a positive control (recombinant FIKK8 kinase domain + Po peptide ([…])[22] + ATP without compounds). Column 18 was a negative control (recombinant FIKK8 kinase domain + Po peptide − ATP). First, 3 µl kinase at 40 nM in kinase reaction buffer (20 mM MOPS, 10 mM magnesium chloride and 10 mM manganese chloride, pH 7.4 (Alfa Aesar)) was dispensed in each well using a Multidrop Combi Reagent dispenser (Thermo Fisher Scientific). Recombinant FIKK8 kinase domain was left to incubate in the presence of compounds for 15 min at room temperature. Then, 3 µl Po peptide + ATP at 20 µM each, diluted in kinase reaction buffer, was dispensed in each well except in column 18 in which 3 µl of peptide without ATP was dispensed. The kinase reaction was left to occur for 1 h and was stopped with 6 µl ADP-Glo reagent. Kinase activity was assessed after addition of 12 µl kinase detection reagent by measuring luminescence on a multimode microplate reader FLUOstar Omega (BMG Labtech).
# FIKK13 = biological target: T2, FIKK13 (Plasmodium falciparum, UniProt A0A143ZWL4); assay: ADP-Glo kinase assay, % inhibition heat map (n = […]); format: biochemical
# T2 construct: gene PF3D7_1371700; recombinant kinase domain
# T2 sequence (A0A143ZWL4 entry or part of it): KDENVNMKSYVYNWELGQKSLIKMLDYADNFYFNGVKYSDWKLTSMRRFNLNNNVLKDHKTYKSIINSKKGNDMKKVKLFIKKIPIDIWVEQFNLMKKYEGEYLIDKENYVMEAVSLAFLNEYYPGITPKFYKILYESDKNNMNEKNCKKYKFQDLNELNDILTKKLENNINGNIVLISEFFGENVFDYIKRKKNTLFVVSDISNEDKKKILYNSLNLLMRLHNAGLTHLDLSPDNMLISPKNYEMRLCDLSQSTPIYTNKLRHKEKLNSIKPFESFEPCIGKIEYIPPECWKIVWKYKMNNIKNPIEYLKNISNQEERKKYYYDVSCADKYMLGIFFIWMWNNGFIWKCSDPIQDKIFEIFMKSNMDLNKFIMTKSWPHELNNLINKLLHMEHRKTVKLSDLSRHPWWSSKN
# FIKK1 = biological target: T3, FIKK1 (Plasmodium falciparum, UniProt B9ZSH8); assay: as above; format: biochemical
# T3 construct: gene PF3D7_0102600; recombinant kinase domain
# T3 sequence (B9ZSH8 entry or part of it): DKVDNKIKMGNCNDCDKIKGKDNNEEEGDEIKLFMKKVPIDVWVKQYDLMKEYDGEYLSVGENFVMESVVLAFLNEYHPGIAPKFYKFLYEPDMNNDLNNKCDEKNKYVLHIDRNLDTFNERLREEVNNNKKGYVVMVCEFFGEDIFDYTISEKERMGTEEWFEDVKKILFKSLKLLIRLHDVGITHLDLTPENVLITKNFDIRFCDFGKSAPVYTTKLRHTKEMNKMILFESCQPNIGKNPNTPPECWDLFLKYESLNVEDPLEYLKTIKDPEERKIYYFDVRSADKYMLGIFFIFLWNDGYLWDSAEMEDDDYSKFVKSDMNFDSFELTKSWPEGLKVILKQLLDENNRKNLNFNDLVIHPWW
# T1 sequence (C0H4R8 entry or part of it): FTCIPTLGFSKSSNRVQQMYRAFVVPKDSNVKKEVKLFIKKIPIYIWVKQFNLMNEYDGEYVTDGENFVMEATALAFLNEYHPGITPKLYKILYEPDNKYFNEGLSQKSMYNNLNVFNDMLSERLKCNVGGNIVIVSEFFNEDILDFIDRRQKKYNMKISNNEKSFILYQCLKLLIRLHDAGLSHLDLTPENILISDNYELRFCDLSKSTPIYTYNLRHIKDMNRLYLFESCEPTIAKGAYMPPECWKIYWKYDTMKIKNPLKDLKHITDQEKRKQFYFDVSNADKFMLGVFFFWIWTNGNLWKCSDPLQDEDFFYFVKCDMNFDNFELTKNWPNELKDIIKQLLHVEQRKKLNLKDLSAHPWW
Structure (SMILES),IC50 (FIKK8),"ADP-Glo kinase assay, % inhibition heat map (n = 3) (FIKK13)","ADP-Glo kinase assay, % inhibition heat map (n = 3) (FIKK1)"
O=c1[nH]ccc2nc(N[C@@H]3CCCNC3)nc(Nc3ccc(S(=O)(=O)N4CCOCC4)cc3)c12 [GSK2177277A],0.048 ± 0.0044 µM,,
Cc1cccc(Nc2nc(N[C@H]3CCNC3)ncc2C(N)=O)c1 [GSK2197149A],0.315 ± 0.052 µM,,
COc1ccc(Nc2ncc(C#N)c(Nc3ccccc3C(N)=O)n2)cc1N1CCN(C)CC1 [GSK1558669A],0.089 ± 0.037 µM,,
CCN1CCC(CC(=O)Nc2n[nH]c3nc(-c4cccs4)c(Br)cc23)CC1 [SB-739245-AC],0.238 ± 0.028 µM,,
O=c1[nH]ccc2nc(N[C@@H]3CCNC3)nc(Nc3ccc4c(c3)S(=O)(=O)CC4)c12 [GSK2181306A],0.031 ± 0.0016 µM,,
Cc1cc(O)c2c(c1)C(=O)c1cc(O)cc(O)c1C2=O [Emodin],,showed potency against all PfFIKKs (Fig. 6d),showed potency against all PfFIKKs (Fig. 6d)
CCNc1nccc(-c2c(-c3ccc(F)cc3)ncn2C2CCN(C)CC2)n1 [SB-226605],0.098 ± 0.0066 µM,,
CN1CCC(n2cnc(-c3ccc(F)cc3)c2-c2ccnc(NCCO)n2)CC1 [SB-226879],0.176 ± 0.02 µM,,
O=c1[nH]ccc2nc(N[C@@H]3CCNC3)nc(Nc3cc(Cl)cc(Cl)c3)c12 [GSK2188764A],0.06 ± 0.0098 µM,,
O=C(Nc1n[nH]c2nnc(-c3cccnc3)cc12)C1CC1 [SB-675259-M],0.168 ± 0.021 µM,,
CCN(CC)Cc1ccc(Nc2nccc(-c3cnn4ncccc34)n2)cc1 [GW780056X],0.332 ± 0.088 µM,,
CN1CCC(n2cnc(-c3ccc(F)cc3)c2-c2ccnc(NC3CCNCC3)n2)CC1 [SB-229482],0.024 ± 0.0017 µM,,
